We go through five compounds from patent US6831199B1, “Pyrimidine compounds and derivatives thereof” (G. D. Searle & Co., priority 1995, dated 2004).

Counter-ions that a name gives are not always drawn. Where only a bound is given, the exact number is not on record here.

Assay [1] concerns the target T1, Human vitronectin receptor (αvβ3) (Homo sapiens, UniProt P05106+P06756).
T1 construct: Human vitronectin receptor (αvβ3) was purified from human placenta; from tissue; host or cells: human placenta
In words: Vitronectin adhesion assay (solid phase receptor assay, competition with biotinylated vitronectin). In kind it is binding. Conditions: read-out: AvB3 IC50. In a few lines:
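Purified human αvβ3 coated overnight at 4 °C in TBS with 1.0 mM Ca++, Mg++, Mn++, pH 7.4; compounds (top final 1.0×10^−4 M) competed with 1 nM biotinylated vitronectin for 2 h at room temperature. Bound ligand detected by HRP anti-biotin/OPD at A450; values normalized to no-competitor controls, four-parameter curve fit.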

For assay [2], the target named is T2, Human fibrinogen receptor (αIIbβ3) (Homo sapiens, UniProt P05106+P08514).
T2 construct: Human fibrinogen receptor (αIIbβ3) was purified from outdated platelets; from tissue; host or cells: outdated human platelets
The assay is described as follows: Purified IIb/IIIa receptor assay (solid phase receptor assay, competition with biotinylated vitronectin). In kind it is binding. As to conditions: read-out: IIb/IIIa IC50. In outline: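 Competition format: 1 nM biotinylated vitronectin plus test compound (highest 1.0×10^−4 M), 2 h at room temperature on wells coated with platelet-derived αIIbβ3. Buffer was TBS containing 1.0 mM Ca, Mg, Mn, pH 7.4. HRP anti-biotin readout at 450 nm; normalized to maximum binding, four-parameter curve fit.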

Assay [3] deals with platelet rich plasma. The assay is described as follows: Human platelet rich plasma assay (ADP induced platelet aggregation). In kind it is cell-based. As to conditions: Homo sapiens, Platelet, ADP induced platelet aggregation in human platelet rich plasma; read-out: Human PRP. In a few lines:
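Citrated platelet-rich plasma from aspirin-free healthy human donors was stirred at 37 °C and preincubated with compound for 1 min. Aggregation was then triggered with ADP (added as a 200 uM solution) and recorded photometrically for 3 min. Dose–response curves were built from % inhibition of the maximal saline-control response.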

Turning to `N=C(N)Nc1cccc(C(=O)NCC(=O)NC(CCS(=O)(=O)c2ccccc2C(=O)O)CC(=O)O)c1` (racemic) [60(C), (±)2-[3-[[2-[[[3-[(aminoiminomethyl)amino]phenyl]carbonyl]amino]acetyl]amino]-4-carboxybutyl]sulfonyl]benzoic acid, trifluoroacetate], the IC50 in assay [1] was 0.73 nM; in assay [2] it was 16.4 nM; in assay [3], over 200000 nM.

For `Cc1ccc(O)c(C(CC(=O)O)NC(=O)CNC(=O)c2cccc(NC(=N)N)c2)c1` (racemic) [Example 88, (±)β-[[2-[[[3-[(aminoiminomethyl)amino]phenyl]carbonyl]amino]acetyl]amino]-2-hydroxy-5-methylbenzenepropanoic acid, trifluoroacetate salt], the IC50 in assay [1] was 8.44 nM; in assay [2] it was 945 nM; in assay [3], over 200000 nM.

`Cc1ccc(S(=O)(=O)NCC(CC(=O)O)NC(=O)CNC(=O)c2cccc(NC(=N)N)c2)cc1` (stereo not drawn) [Example 65, 3-[[2-[[[3-[(aminoiminomethyl)amino]phenyl]carbonyl]amino]acetyl]amino]-4-[[(4-methylphenyl)sulfonyl]amino]butanoic acid, trifluoroacetate salt]: the IC50 in assay [1] is 9.7 nM; in assay [2], 170 nM; in assay [3], over 200000 nM.

On to `Cc1ccc(SCCC(CC(=O)O)NC(=O)CNC(=O)c2cccc(NC(=N)N)c2)cc1` (racemic) [Example 66, (±)3-[[2-[[[3-[(aminoiminomethyl)amino]phenyl]carbonyl]amino]acetyl]amino]-5-[(4-methylphenyl)thio]pentanoic acid, trifluoroacetate salt], for which the IC50 was 1.44 nM in assay [1], 73.7 nM in assay [2] and over 100000 nM in assay [3].

On to `C#C[C@H](CC(=O)O)NC(=O)CNC(=O)c1cccc(NC2=NCCCCC2)c1` [Example 30, βS-[[2-[[[3-[(3,4,5,6-tetrahydro-2H-azepin-7-yl)amino]phenyl]carbonyl]amino]acetyl]amino]-4-pentynoic acid, trifluoroacetate salt], for which the IC50 is 1.75 nM in assay [1], 424 nM in assay [2] and over 200000 nM in assay [3].
